The results in this text go back to patent US20230348442A1, “GALECTIN-3 INHIBITING 2-HYDROXYCYCLOALKANE-1-CARBAMOYL DERIVATIVES” (Idorsia Pharmaceuticals Ltd, priority 2020, published 2023).

The structures appear in SMILES notation.

Sequence of human Gal-3 (hGal-3) (P17931 whole entry): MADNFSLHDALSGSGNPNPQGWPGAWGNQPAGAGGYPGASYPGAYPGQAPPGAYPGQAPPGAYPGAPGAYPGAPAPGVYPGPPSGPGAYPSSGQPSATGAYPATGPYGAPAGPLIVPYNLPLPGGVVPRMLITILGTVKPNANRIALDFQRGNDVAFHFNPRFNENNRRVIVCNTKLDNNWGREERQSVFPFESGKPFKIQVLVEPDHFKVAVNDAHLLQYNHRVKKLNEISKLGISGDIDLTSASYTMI

This test has as its target human Gal-3 (hGal-3) (Homo sapiens (Human), UniProt P17931). The test is described as follows: competitive binding assay: binding of biotinylated hGal-3 to microplate-adsorbed asialofetuin (ASF), spectrophotometric. Particulars: Activity on hGal-3; mean values of several measurements. The method in brief:
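Compounds in DMSO dilution series competed with 300-1000 ng/mL biotinylated hGal-3 for asialofetuin adsorbed on the plate (3 h, 4° C). Streptavidin-peroxidase at 80 ng/mL (1 h, 4° C) with ABTS gave a spectrophotometric read-out, and IC50 was reported as the mean of repeat runs.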
Compound `CO[C@@H]1[C@@H](n2cc(-c3ccc(F)c(F)c3F)nn2)[C@@H](O)[C@@H](CO)O[C@H]1C(=O)N(c1cc(Cl)cc(C#N)c1)[C@H]1CCC[C@@H]1O` [Example 1.20.4, (2R,3R,4S,5R,6R)-N-(3-chloro-5-cyanophenyl)-5-hydroxy-N-((1S,2S)-2-hydroxycyclopentyl)-6-(hydroxymethyl)-3-methoxy-4-(4-(2,3,4-trifluorophenyl)-1H-1,2,3-triazol-1-yl)tetrahydro-2H-pyran-2-carboxamide] displayed an IC50 of 25.7 nM.

Compound `CO[C@@H]1[C@@H](n2cc(-c3ccc(C)c(F)c3)nn2)[C@@H](O)[C@@H](CO)O[C@H]1C(=O)N(c1cc(C)cc(C#N)c1)[C@H]1CCC[C@@H]1O` [Example 1.13.8, (2R,3R,4S,5R,6R)-N-(3-cyano-5-methylphenyl)-4-(4-(3-fluoro-4-methylphenyl)-1H-1,2,3-triazol-1-yl)-5-hydroxy-N-((1S,2S)-2-hydroxycyclopentyl)-6-(hydroxymethyl)-3-methoxytetrahydro-2H-pyran-2-carboxamide] registered an IC50 of 33.2 nM. In turn, `CO[C@@H]1[C@@H](n2cc(-c3ccc(Cl)c(Cl)c3)nn2)[C@@H](O)[C@@H](CO)O[C@H]1C(=O)N(c1cc(Cl)cc(C#N)c1)[C@@H]1CCC[C@H]1O` [Example 1.8.4R, (2R,3R,4S,5R,6R)-N-(3-chloro-5-cyanophenyl)-4-(4-(3,4-dichlorophenyl)-1H-1,2,3-triazol-1-yl)-5-hydroxy-N-((1R,2R)-2-hydroxycyclopentyl)-6-(hydroxymethyl)-3-methoxytetrahydro-2H-pyran-2-carboxamide] came in with an IC50 of 330 nM. `CO[C@@H]1[C@@H](n2cc(-c3cc(F)c(C)c(F)c3)nn2)[C@@H](O)[C@@H](CO)O[C@H]1C(=O)N(c1cc(Cl)cc(C#N)c1)[C@H]1CCC[C@@H]1O` [Example 1.4.4, (2R,3R,4S,5R,6R)-N-(3-chloro-5-cyanophenyl)-4-(4-(3,5-difluoro-4-methylphenyl)-1H-1,2,3-triazol-1-yl)-5-hydroxy-N-((1S,2S)-2-hydroxycyclopentyl)-6-(hydroxymethyl)-3-methoxytetrahydro-2H-pyran-2-carboxamide] came in with an IC50 of 17.3 nM. Compound `CO[C@@H]1[C@@H](n2cc(-c3cc(F)c(F)c(F)c3)nn2)[C@@H](O)[C@@H](CO)O[C@H]1C(=O)N(c1cc(Cl)cc(Cl)c1)[C@H]1CC[C@@H]1O` [Example 2.1.2, (2R,3R,4S,5R,6R)-N-(3,5-dichlorophenyl)-5-hydroxy-N-((1S,2S)-2-hydroxycyclobutyl)-6-(hydroxymethyl)-3-methoxy-4-(4-(3,4,5-trifluorophenyl)-1H-1,2,3-triazol-1-yl)tetrahydro-2H-pyran-2-carboxamide] gave an IC50 of 51.8 nM. In the case of `CO[C@@H]1[C@@H](n2cc(-c3ccc(Br)c(F)c3F)nn2)[C@@H](O)[C@@H](CO)O[C@H]1C(=O)N(c1cc(Br)cc(C#N)c1)[C@@H]1CC[C@H]1O` [Example 2.12.5R, (2R,3R,4S,5R,6R)-4-(4-(4-bromo-2,3-difluorophenyl)-1H-1,2,3-triazol-1-yl)-N-(3-bromo-5-cyanophenyl)-5-hydroxy-N-((1R,2R)-2-hydroxycyclobutyl)-6-(hydroxymethyl)-3-methoxytetrahydro-2H-pyran-2-carboxamide], the IC50 amounted to 78.5 nM.

The compound `CO[C@@H]1[C@@H](n2cc(-c3cc(F)c(F)c(F)c3)nn2)[C@@H](O)[C@@H](CO)O[C@H]1C(=O)N(c1cccc(Br)c1)[C@H]1CC[C@@H]1O` [Example 2.1.10, (2R,3R,4S,5R,6R)-N-(3-bromophenyl)-5-hydroxy-N-((1S,2S)-2-hydroxycyclobutyl)-6-(hydroxymethyl)-3-methoxy-4-(4-(3,4,5-trifluorophenyl)-1H-1,2,3-triazol-1-yl)tetrahydro-2H-pyran-2-carboxamide] showed an IC50 of 108 nM.

Consider `CO[C@@H]1[C@@H](n2cc(-c3cccc(F)c3)nn2)[C@@H](O)[C@@H](CO)O[C@H]1C(=O)N(c1cc(Cl)cc(C#N)c1)[C@H]1CCC[C@@H]1O` [Example 1.15.4, (2R,3R,4S,5R,6R)-N-(3-chloro-5-cyanophenyl)-4-(4-(3-fluorophenyl)-1H-1,2,3-triazol-1-yl)-5-hydroxy-N-((1S,2S)-2-hydroxycyclopentyl)-6-(hydroxymethyl)-3-methoxytetrahydro-2H-pyran-2-carboxamide], for which the IC50 turned out to be 54 nM. The compound `CO[C@@H]1[C@@H](n2cc(-c3ccc(Br)c(F)c3F)nn2)[C@@H](O)[C@@H](CO)O[C@H]1C(=O)N(c1cc(F)cc(C#N)c1)[C@@H]1CCC[C@H]1O` [Example 1.12.7R, (2R,3R,4S,5R,6R)-4-(4-(4-bromo-2,3-difluorophenyl)-1H-1,2,3-triazol-1-yl)-N-(3-cyano-5-fluorophenyl)-5-hydroxy-N-((1R,2R)-2-hydroxycyclopentyl)-6-(hydroxymethyl)-3-methoxytetrahydro-2H-pyran-2-carboxamide] yielded an IC50 of 94.6 nM. `CO[C@@H]1[C@@H](n2cc(-c3ccc(Br)cc3)nn2)[C@@H](O)[C@@H](CO)O[C@H]1C(=O)N(c1cc(Cl)cc(C#N)c1)[C@@H]1CCC[C@H]1O` [Example 1.19.4R, (2R,3R,4S,5R,6R)-4-(4-(4-bromophenyl)-1H-1,2,3-triazol-1-yl)-N-(3-chloro-5-cyanophenyl)-5-hydroxy-N-((1R,2R)-2-hydroxycyclopentyl)-6-(hydroxymethyl)-3-methoxytetrahydro-2H-pyran-2-carboxamide] gave an IC50 of 312 nM.

`COc1cc(C#N)cc(N(C(=O)[C@@H]2O[C@H](CO)[C@H](O)[C@H](n3cc(-c4ccc(C#N)c(F)c4)nn3)[C@H]2OC)[C@@H]2CCC[C@H]2O)c1` [Example 1.16.9R, (2R,3R,4S,5R,6R)-4-(4-(4-cyano-3-fluorophenyl)-1H-1,2,3-triazol-1-yl)-N-(3-cyano-5-methoxyphenyl)-5-hydroxy-N-((1R,2R)-2-hydroxycyclopentyl)-6-(hydroxymethyl)-3-methoxytetrahydro-2H-pyran-2-carboxamide]: the IC50 was 1460 nM. As to `CO[C@@H]1[C@@H](n2cc(-c3ccc(F)c(F)c3F)nn2)[C@@H](O)[C@@H](CO)O[C@H]1C(=O)N(c1cc(Br)cc(C#N)c1)[C@H]1CCC[C@@H]1O` [Example 1.20.5, (2R,3R,4S,5R,6R)-N-(3-bromo-5-cyanophenyl)-5-hydroxy-N-((1S,2S)-2-hydroxycyclopentyl)-6-(hydroxymethyl)-3-methoxy-4-(4-(2,3,4-trifluorophenyl)-1H-1,2,3-triazol-1-yl)tetrahydro-2H-pyran-2-carboxamide], the half-maximal inhibitory concentration (IC50) came to 28.7 nM.

The compound `CO[C@@H]1[C@@H](n2cc(-c3ccc(C)c(F)c3F)nn2)[C@@H](O)[C@@H](CO)O[C@H]1C(=O)N(c1cc(Cl)cc(Cl)c1)[C@H]1CC[C@@H]1O` [Example 2.11.2, (2R,3R,4S,5R,6R)-N-(3,5-dichlorophenyl)-4-(4-(2,3-difluoro-4-methylphenyl)-1H-1,2,3-triazol-1-yl)-5-hydroxy-N-((1S,2S)-2-hydroxycyclobutyl)-6-(hydroxymethyl)-3-methoxytetrahydro-2H-pyran-2-carboxamide] came in with an IC50 of 42.7 nM. For the compound `CO[C@@H]1[C@@H](n2cc(-c3ccc(C)c(F)c3F)nn2)[C@@H](O)[C@@H](CO)O[C@H]1C(=O)N(c1cc(Br)cc(C#N)c1)[C@H]1CC[C@@H]1O` [Example 2.11.5, (2R,3R,4S,5R,6R)-N-(3-bromo-5-cyanophenyl)-4-(4-(2,3-difluoro-4-methylphenyl)-1H-1,2,3-triazol-1-yl)-5-hydroxy-N-((1S,2S)-2-hydroxycyclobutyl)-6-(hydroxymethyl)-3-methoxytetrahydro-2H-pyran-2-carboxamide], the IC50 was 17.1 nM. `CO[C@@H]1[C@@H](n2cc(-c3ccc(Br)cc3)nn2)[C@@H](O)[C@@H](CO)O[C@H]1C(=O)N(c1cc(Cl)cc(C#N)c1)[C@H]1CCC[C@@H]1O` [Example 1.19.4, (2R,3R,4S,5R,6R)-4-(4-(4-bromophenyl)-1H-1,2,3-triazol-1-yl)-N-(3-chloro-5-cyanophenyl)-5-hydroxy-N-((1S,2S)-2-hydroxycyclopentyl)-6-(hydroxymethyl)-3-methoxytetrahydro-2H-pyran-2-carboxamide] gave an IC50 of 163 nM. As for `CO[C@@H]1[C@@H](n2cc(-c3ccc(Cl)c(Cl)c3)nn2)[C@@H](O)[C@@H](CO)O[C@H]1C(=O)N(c1cc(Cl)cc(C#N)c1)[C@@H]1CC[C@H]1O` [Example 2.8.4R, (2R,3R,4S,5R,6R)-N-(3-chloro-5-cyanophenyl)-4-(4-(3,4-dichlorophenyl)-1H-1,2,3-triazol-1-yl)-5-hydroxy-N-((1R,2R)-2-hydroxycyclobutyl)-6-(hydroxymethyl)-3-methoxytetrahydro-2H-pyran-2-carboxamide], the IC50 worked out at 401 nM. With `CO[C@@H]1[C@@H](n2cc(-c3cc(F)cc(Cl)c3)nn2)[C@@H](O)[C@@H](CO)O[C@H]1C(=O)N(c1cc(Br)cc(C#N)c1)[C@@H]1CC[C@H]1O` [Example 2.9.5R, (2R,3R,4S,5R,6R)-N-(3-bromo-5-cyanophenyl)-4-(4-(3-chloro-5-fluorophenyl)-1H-1,2,3-triazol-1-yl)-5-hydroxy-N-((1R,2R)-2-hydroxycyclobutyl)-6-(hydroxymethyl)-3-methoxytetrahydro-2H-pyran-2-carboxamide], the IC50 stood at 473 nM. Compound `CO[C@@H]1[C@@H](n2cc(-c3cc(F)c(F)c(F)c3)nn2)[C@@H](O)[C@@H](CO)O[C@H]1C(=O)N(c1cc(C)cc(Br)c1)[C@@H]1CC[C@H]1O` [Example 2.1.12R, (2R,3R,4S,5R,6R)-N-(3-bromo-5-methylphenyl)-5-hydroxy-N-((1R,2R)-2-hydroxycyclobutyl)-6-(hydroxymethyl)-3-methoxy-4-(4-(3,4,5-trifluorophenyl)-1H-1,2,3-triazol-1-yl)tetrahydro-2H-pyran-2-carboxamide] registered an IC50 of 220 nM. This IC50 is about 2.1-fold lower than that of the compound before.

In the case of `CO[C@@H]1[C@@H](n2cc(-c3ccc(C#N)c(F)c3)nn2)[C@@H](O)[C@@H](CO)O[C@H]1C(=O)N(c1cc(C)cc(C#N)c1)[C@H]1CCC[C@@H]1O` [Example 1.16.8, (2R,3R,4S,5R,6R)-4-(4-(4-cyano-3-fluorophenyl)-1H-1,2,3-triazol-1-yl)-N-(3-cyano-5-methylphenyl)-5-hydroxy-N-((1S,2S)-2-hydroxycyclopentyl)-6-(hydroxymethyl)-3-methoxytetrahydro-2H-pyran-2-carboxamide], the IC50 stood at 163 nM.

What is called IC50 is the midpoint of a concentration-inhibition curve.
